# According to US9988371B2, “Benzimidazole analogues and related methods” (The Arizona Board of Regents, on Behalf of the University …, priority 2014, dated 2018):
# Tests used:
# [1] = system: TT cells (MTC, RET/C634W); assay: Growth curve proliferation assay, TT cells; assay type: cell-based; conditions: Homo sapiens, last day of growth curves
# Protocol: (§1) FIG. 5: Effects exerted by indicated concentrations of Pz-1 or vehicle (NT: not treated) on proliferation of TT (human MTC cell line expressing RET/C634W), Lc-2/ad (human NSCLC expressing CCDC6-RET) and Nthy-ori-3-1 (thyroid non-transformed) cell lines. Data are the mean±SD (Standard Deviation) of one experiment performed in triplicate. Bottom, right) Growth inhibition IC50 of Pz-1 for the different cell lines: 95% CI (confidence intervals) are indicated in brackets. Cells were seeded in triplicate in 60-mm dishes and kept in 5% (Nthy-ori-3-1) or 10% (TT and Lc-2/ad) fetal calf serum. The day after plating, different concentrations of Pz-1 or vehicle were added to the medium and changed every 2-3 days. Cells were counted every 2-3 days and cell numbers were reported±SD (Standard Deviation). IC50 doses (with Confidence Intervals) were calculated through a curve fitting analysis from the last day of growth curves using the PRIZM software program (Graphpad Software Inc).
# (§2) Nthy-ory-3-1 and TTcells were seeded in 60-mm dishes. […] Cells were counted every 2-3 days. […] Parental and RET/PTC-expressing Ba/F3 were kept in 10% fetal calf serum in 6-multi wells and counted every day for 4 consecutive days, changing media every 2 days. […] IC50 doses were calculated through a curve fitting analysis from the last day of growth curves using the PRISM software program (Graphpad Software Inc). […]
# [2] = system: LC-2/ad cells (NSCLC expressing CCDC6-RET); assay: Growth curve proliferation assay, LC-2/ad cells; assay type: cell-based; conditions: Homo sapiens, last day of growth curves
# Protocol: as §1, §2
# [3] = target: T1, VEGFR2 (Mus musculus, UniProt P35918); assay: In vivo target inhibition, pVEGFR2 in RET/C634Y-induced tumors; parameters: species or system nude mice; conditions: 48 hr, 1.0 or 3.0 mg/kg daily
# T1 construct: from tissue; host or cells: subcutaneous tumours (NIH3T3 RET/C634Y or NIH3T3 HRAS/G12V) in BALB/c nu/nu mice
# Protocol: (§3) FIG. 9: Photographs of blots showing effects of Pz-1 on cellular phosphorylation events in tumors induced in nude mice (from FIG. 8) by injection of NIH3T3 fibroblasts transformed by RET/C634Y or HRAS/G12V. […] Some of the vehicle-treated tumors, at the end of the tumor growth experiment described in FIG. 8, were treated for 48 hr with different doses of Pz-1 (TR) or left untreated (NT). At the end of the treatment, 50 μg of tumor protein lysates were subjected to immunoblotting with anti-phospho-Y1062 (αp1062) and anti-phospho-905 (αpY905) RET antibodies, anti-phospho-MAPK (αpMAPK, T302/Y304), anti-phospho-SHC (αpSHC, Y317), anti-phospho-p70S6K (αpp70S6K, T389), anti-phospho-S6RP (αpS6RP, S235/S236), and anti-phospho-VEGFR2 (αpVEGFR2 pY1175) antibodies. The blots were normalized using anti-RET (αRET), anti-SHC (αSHC), anti-MAPK (αMAPK), anti-p70S6K (αp70S6K), anti-S6RP (αS6RP) or anti-VEGFR2 (αVEGFR2) antibodies.
# (§4) Some of the vehicle-treated tumors, at the end of the tumor growth experiment reported in FIG. 8, were treated for 48 hr with different doses of Pz-1 (1.0 or 3.0 mg/kg daily) or left untreated. […]
# [4] = system: intracellular signaling (SHC, MAPK, p70S6K and S6RP); assay: In vivo target inhibition, RET phosphorylation and signaling in HRAS/G12V-induced tumors; parameters: species or system nude mice; conditions: 48 hr, 1.0 or 3.0 mg/kg daily
# Protocol: as §3, §4
# [5] = PK study in rats; assay type: in vivo
# Protocol: For PK studies of Pz-1 in animals, a solution formulation for oral administration was created in 500 μL of polysorbate 80, 500 μL of EtOH, and 1.0 mL of pH 2 buffer. For the toxicity studies, a suspension formulation was developed in tween 20 (20%) and xanthan gum (0.125%).
# T112 (3-4 hrs) in rats was in line with T1/2 in mice (4.2 hrs).
# T1 sequence (P35918 20-1345): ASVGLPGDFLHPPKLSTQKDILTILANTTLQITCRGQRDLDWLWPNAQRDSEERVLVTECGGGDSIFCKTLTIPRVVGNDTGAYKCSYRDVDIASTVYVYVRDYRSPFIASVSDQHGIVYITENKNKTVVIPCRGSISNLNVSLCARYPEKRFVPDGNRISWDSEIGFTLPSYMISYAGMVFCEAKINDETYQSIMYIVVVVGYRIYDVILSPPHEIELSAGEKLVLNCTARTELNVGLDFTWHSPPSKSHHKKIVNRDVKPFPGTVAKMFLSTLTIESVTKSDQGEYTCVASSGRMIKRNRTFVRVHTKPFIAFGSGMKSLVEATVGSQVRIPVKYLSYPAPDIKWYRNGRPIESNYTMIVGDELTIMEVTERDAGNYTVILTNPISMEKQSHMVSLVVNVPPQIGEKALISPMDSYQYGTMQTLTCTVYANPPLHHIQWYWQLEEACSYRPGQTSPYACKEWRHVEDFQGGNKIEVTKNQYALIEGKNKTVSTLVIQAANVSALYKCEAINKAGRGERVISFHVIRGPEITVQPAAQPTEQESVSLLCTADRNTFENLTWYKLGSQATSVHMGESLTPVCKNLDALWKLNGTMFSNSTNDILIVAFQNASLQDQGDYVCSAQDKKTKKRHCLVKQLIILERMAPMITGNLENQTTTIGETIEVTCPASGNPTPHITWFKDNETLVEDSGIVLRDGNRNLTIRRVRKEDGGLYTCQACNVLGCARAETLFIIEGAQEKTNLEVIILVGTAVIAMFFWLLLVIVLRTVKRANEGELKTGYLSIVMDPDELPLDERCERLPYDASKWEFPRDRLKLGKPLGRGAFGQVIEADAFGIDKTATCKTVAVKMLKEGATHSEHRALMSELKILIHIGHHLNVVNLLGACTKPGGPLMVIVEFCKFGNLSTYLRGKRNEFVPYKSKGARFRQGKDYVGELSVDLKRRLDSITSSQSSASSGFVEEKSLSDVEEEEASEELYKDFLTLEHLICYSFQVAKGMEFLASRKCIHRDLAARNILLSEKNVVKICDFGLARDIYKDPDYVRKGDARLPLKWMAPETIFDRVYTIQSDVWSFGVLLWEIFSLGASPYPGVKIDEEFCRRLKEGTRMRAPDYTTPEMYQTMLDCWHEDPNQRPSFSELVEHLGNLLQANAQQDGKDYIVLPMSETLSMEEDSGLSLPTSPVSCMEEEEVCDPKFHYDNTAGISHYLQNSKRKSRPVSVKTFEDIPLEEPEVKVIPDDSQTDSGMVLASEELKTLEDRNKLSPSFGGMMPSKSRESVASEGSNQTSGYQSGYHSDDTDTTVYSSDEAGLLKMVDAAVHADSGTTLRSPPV
smiles,measurement,setting,value
"Cn1cc(-c2ccc3c(c2)ncn3-c2ccc(CC(=O)Nc3cc(C(C)(C)C)on3)cc2)cn1 [Pz-1, N-(5-(tert-butyl)isoxazol-3-yl)-2-(4-(5-(1-methyl-1H-pyrazol-4-yl)-1H-benzo[d]imidazol-1-yl)phenyl)acetamide]",IC50,[1],1.86 nM
same,IC50,[2],0.907 nM
same,pVEGFR2 in tumors,[3],inhibited
same,"RET phosphorylation and intracellular signaling (SHC, MAPK, p70S6K and S6RP) in tumors",[4],only in RET/C634Y-induced tumors
same,T112,[5],3 to 4 h
same,volume distribution,[5],2.02 L/kg
same,AUC,[5]; 1 mg/kg (IV),1.9 µg/h/mL
same,AUC,[5]; 10 mg/kg (oral),19 µg/h/mL
same,bioavaliblity,[5]; oral,97%
same,half-life,"[5]; rat, in vivo, 10 mg/kg, oral study, read-out: elimination half-life (converted)",4.2 h
same,clearance,"[5]; rat, in vivo, oral, 10 mg/kg",9 mL/min/kg
